Measured values taken from publication PMC11091243, “PD-L1 targeted peptide demonstrates potent antitumor and immunomodulatory activity in cancer immunotherapy” (Frontiers in Immunology, 2024).

Legend:
LLC cells = test: Flow cytometry binding to LLC cells; format: cell-based, mouse; conditions: higher PD-L1 expression than MC38
Method: Fluorescence-based ELISA and cell-based tests were used to examine the binding specificity of PPL-C to PD-L1. To perform the ELISA, fluorescent plates were coated with 100 μL human PD-L1 (hPD-L1), mouse PD-L1 (mPD-L1), and BSA in PBS (pH 7.4) overnight at 4°C, respectively. Blocked the plates with 1% BSA (in PBST) for an hour at room temperature and rinsed twice with PBST. Then added peptides (20 μmol/L FITC-labeled PPL-C/Control peptide) and incubated for 1.5 hours at room temperature. With excitation at 488 nm and emission at 515 nm, the Cytation 3 instrument (BioTek) was used to measure the relative fluorescence intensity. Both attached and detached cells were used in the cell-based flow cytometry analysis. […] After that, cells were treated for 40 minutes at 4°C on an inversion shaker with PD-L1 antibody from Biolegend and 4 μmol/L FITC-labeled peptides (PPL-C/Control peptide). Each tube was washed twice with PBS following incubation and flow cytometry was carried out using a FACSort device. FlowJo software was used to evaluate the data that was acquired.

Swiss mice = format: in vivo, mouse; conditions: twice intraperitoneal 180 mg/kg (30 times effective amount), observed 14 days, data not shown
[1] = tested on: splenic lymphocyte subsets of CT26-bearing Balb/c mice; test: Flow cytometry of spleen lymphocytes of CT26-bearing mice after treatment; format: in vivo; conditions: mouse, in vivo
Method: (§1) The mice’s tumor volumes were measured by calipers after they were randomly allocated to various treatment groups. Every day tumor volumes were measured along axes (a and b) that are orthogonal to one another, and they were estimated by the equation tumor volume = π/6 × a × b^2. After the tumor was established (approximately 7 days), each group was subcutaneously injected with PPL-C (6 or 11 mg/kg), control peptide (11 mg/kg), endotoxin-free PD-L1 antibody (200 μg), or control antibody, following specific treatment procedures outlined in the flow chart. The Kaplan-Meier technique was used to determine survival differences for each group, and the log-rank test using the survival R package version 2.38-3 was applied to get the overall p-value.
To differentiate lymphocytes, spleen monocytes were separated via isodensity centrifugation. For flow cytometry evaluation, cell-surface and intracellular staining was achieved through reagents from BD Biosciences or Biolegend, following previously described protocols. Re-suspending the 1× 10^6 cells in 100 μL of PBS before incubating them with the appropriate antibodies. Data were collected using a BD Biosciences FACSCalibur flow cytometer, Germany, and analyzed using FlowJo 7.6 software, USA. Based on scatter signals and 7-Amino-actinomycin D fluorescence, dead cells, and cell debris were removed from the study.

CD4+ T cells in MLR = test: Mixed lymphocyte reaction (DCs, CT26 tumor cells, CD4+ T cells); format: cell-based, mouse; conditions: 20 μmol/L, versus control and control peptides, day 3, n = 3
Method: Fresh PBMCs were cultured in IMDM at 37°C for 2 hours and washed twice in PBS. Then cells were cultured in IMDM supplemented with 10% FBS, 25 ng/mL GM-CSF, and 50 ng/mL IL-4. Fresh medium was added every three days. TNF-α (50 ng/mL) was added on the sixth day to stimulate the maturation of dendritic cells (DCs) for 24 hours. The mature DCs were then frozen to be harvested later. Solid tumor tissues from the CT26 tumor-bearing animal have been removed and fragmented to collect tumor cells. In RPMI 1640 medium supplemented with 10% FBS, 2 mM L-glutamine, […] streptomycin, and 200 U/mL penicillin, these fragments were subjected to digestion with a combination of triple enzymes (collagenase, DNase, and hyaluronidase) for a maximum of 2 hours. The resultant cell suspension was then grown in complete RPMI 1640 medium at 37°C with 5% CO2 for 24 hours. The goal of this culture phase was to re-establish PD-L1 expression on the tumor cell surface since collagenase digestion may have destroyed it. DCs and tumor cells were both given a 2-hour treatment with mitomycin C (MMC) at a dosage of 100 μg/mL before the start of mixed lymphocyte responses (MLR). After thawing, the CD4+ T cells were cultured for overnight. […] Cell growth and IFN-γ levels in culture supernatants were measured on day 3.

[2] = tested on: serum cytokines of CT26-bearing mice; test: Cytokine ELISA of serum of treated CT26-bearing mice; format: in vivo, mouse; conditions: 14 days of administration, versus untreated and control peptide groups
Method: After 14 days of continuous administration, 0.5-1.0 ml of peripheral blood was collected from the mice. Serum was isolated from peripheral blood using the posterior orbital venous plexus blood collection method. The serum was obtained by centrifuging at 2000 RMP for 10 minutes. Mouse total lymphocytes were isolated from the spleen using Ficoll density gradient fractionation (Shanghai Biotech Bioengineering). In 200 μL of RIPM medium with 10% FBS, 1×10^6 tumor cells were seeded in each well with a CT26: lymphocyte ratio of 1:2 and incubated for 48 and 72 hours. Cell growth medium was harvested by centrifuging at 2000 RPM for 10 min. For the analysis of cytokine production, lymphocyte growth media served as a positive control and cell-free growth medium served as a negative control. Following the manufacturer’s instructions, the levels of IL-2, IL-4, IL-6, IL-10, TNF-α and IFN-γ in the blood and cell growth media were assessed using LEGEND MAX™ ELISA kit (BioLegend Inc, USA). Three duplicates of each experiment were carried out.

CT26 cells = test: Cytotoxicity of spleen lymphocytes of treated mice against CT26 cells (CCK8); format: cell-based, mouse; conditions: CT26:lymphocyte 1:2, 48 h, CCK8, n = 6, versus untreated and control peptide groups
Method: After 14 consecutive days of administration, total lymphocytes were isolated from mouse spleens using Ficoll density gradient fractionation, which was provided by Shanghai Biotech Bioengineering. Before co-incubation with lymphocytes, CT26 cells were treated with 100 μg/mL mitomycin C (MMC) for 2 hours for […] experiments. For cytotoxicity experiments, about 1×10^6 tumor cells were seeded in each well with a CT26: lymphocyte ratio of 1: 2 in 200 μL RIPM medium plus 10% FBS for 48 h. A corresponding negative control group was also designed. During the final two hours of the incubation, 10 µL of CCK8 reagent was added to each well following the manufacturer’s instructions (Biotech Bioengineering Cat: E606335). Using an ELISA plate reader (Molecular Devices, USA) the absorbance was determined at 450 nm. There were three duplicates of each experiment.

CT26 tumor = format: in vivo, mouse
Method: The investigators conducting the animal studies were not blinded. […] The mice were then randomized into different treatment groups.
as §1

`CC(C)[C@H](NC(=O)[C@H](CO)NC(=O)[C@@H](NC(=O)[C@@H](N)CO)C(C)C)C(=O)N[C@@H](CO)C(=O)N[C@@H](Cc1c[nH]cn1)C(=O)N[C@@H](Cc1ccccc1)C(=O)N[C@@H](CCC(N)=O)C(=O)N[C@@H](CCCCN)C(=O)N[C@H](C(=O)N[C@@H](Cc1c[nH]c2ccccc12)C(=O)N[C@H](C(=O)N[C@H](C(=O)NCC(=O)NCC(=O)NCC(=O)N[C@@H](CO)C(=O)N[C@@H](CCCCN)C(N)=O)C(C)C)C(C)C)C(C)C` [PPL-C] was tested, and the “Affinity to LLC cells” value (LLC cells) was “higher affinity”, the Acute toxicity (Swiss mice) was “no acute toxicity” and the “Percentage of NK cells in spleen (CD49b/Nkp46, upper right quadrant)” value [1] was 7.79%. For the same compound, the “IFN-γ release in MLR” value (CD4+ T cells in MLR) was “significantly higher release”, the “IFN-γ, IL-2, IL-4 and IL-6 secretion in serum” value [2] was “significantly promoted” and the “IL-10 secretion in serum” value [2] was “lower IL-10 secretion”. For the same compound, the “Effect of lymphocytes from treated mice on tumor cell proliferation” value (CT26 cells) was “significantly inhibited tumor cell proliferation”, the “Increase in survival time of CT26 tumor-bearing mice” value (CT26 tumor; 11 mg/kg s.c. around the tumor, dosing-schedule study, saline as negative control) was “approximately 50%” and the “Increase in survival time compared to the control peptide” value (CT26 tumor; reduced dose, s.c. around the tumor every day or every other day) was “approximately 50%”. For the same compound, the “Survival time of CT26 tumor-bearing mice” value (CT26 tumor; reduced dose, s.c. around the tumor every day or every other day, n = 6, P<0.001) was 81 days.
